Laboratory results from patent US20030054185A1, “Biocidal controlled-release formulations” (CREAVIS GESELLSCHAFT F. TECHN.U.INNOVATION MBH, priority 2001, published 2003).

Columns and labels:
Pseudomonas aeruginosa = test: test microbial suspension shaken with aqueous extract, number of microbes determined; format: cell-based; conditions: contact time of 4 hours, starting number 10^7, 2 mL of 24 h water extract (37° C.) in 20 mL suspension (solvent control: 0.5 mL neat)
Procedure: The supernatant liquor is then filtered through a 0.2 micrometer pore filter. 2 mL of this solution are shaken with 20 mL of a test microbial suspension of Pseudomonas aeruginosa. […] The solvent is removed at 35° C. over a period of 48 hours in a drying cabinet, so that a polymer film remains on the base of the glass beaker. This film is extracted for 24 hours with 200 mL of water heated to 37° C. 2 mL of this solution are shaken with 20 mL of a test microbial suspension of Pseudomonas aeruginosa. […] Over a period of 14 days, the film is extracted as described above, each time for 24 hours, with 200 mL of water heated to 37° C., and the water is then subjected to microbiological testing. All of the determinations show a fall of from 4 to 5 logarithmic levels in the number of microbes. […] The solvent is removed over a period of 48 hours at 35° C. in a drying cabinet, so that a polymer film remains on the base of the glass beaker. The film is then dried for 24 hours at 5 mbar at 50° C. in a vacuum drying cabinet. This film is extracted for 24 hours with 200 mL of water heated to 37° C. 2 mL of this solution are shaken with 20 mL of a test microbial suspension of Pseudomonas aeruginosa. […] The solvent is removed over a period of 48 hours at 35° C. in a drying cabinet so that a polymer film remains on the base of the glass beaker. […]

Staphylococcus aureus = test: as above; format: cell-based; conditions: contact time of 4 hours, starting number 10^7, 2 mL of 24 h water extract (37° C.) in 20 mL suspension (solvent control: 0.5 mL neat)
Procedure: 2 mL of this solution are shaken with 20 mL of a test microbial suspension of Staphylococcus aureus. After a contact time of 4 hours, 1 mL of the test microbial suspension is removed, and the number of microbes in the test mixture is determined.
This film is extracted for 24 hours with 200 mL of water heated to 37° C. 2 mL of this solution are shaken with 20 mL of a test microbial suspension of Staphylococcus aureus. After a contact time of 4 hours, 1 mL of the test microbial suspension is removed, and the number of microbes in the test mixture is determined. […] Over a period of 14 days, the film is extracted as described above, each time for 24 hours, with 200 mL of water heated to 37° C., and the water is then subjected to microbiological testing.
This film is extracted for 24 hours with 200 mL of water heated to 37° C. 2 mL of this solution are shaken with 20 mL of a test microbial suspension of Staphylococcus aureus. After a contact time of 4 hours, 1 mL of the test microbial suspension is removed, and the number of microbes in the test mixture is determined.

Compound | number of microbes in the test mixture (Pseudomonas aeruginosa) | number of microbes in the test mixture (Staphylococcus aureus)
C1CCCCC1 [cyclohexane] | 10^7 microbes per mL | 
CCO [ethanol] |  | 10^7 microbes per mL
